Article PMC6661952 (BMC Chemistry, 2019)
Values joined by “and” are separate entries in the source; they are usually repeats but may differ in a detail not shown here. Equal values may be shown once. Read-outs that look alike come from different tables or passages of the source.

Settings: for Log k (logarithm of the retention factor): C18 column, methanol-water; for Log kw (lipophilicity chromatographic index, intercept of log k = log kw − S φ): extrapolated to pure water as eluent, C18, methanol-water; for φ 0 (isocratic chromatographic hydrophobicity index): φ 0 = − log kw/S, methanol as organic modifier, C18
Procedure: For chromatographic analysis, stock solutions (200 μg/mL) of each of the investigated samples were prepared in methanol. HPLC measurements were performed utilizing Shimadzu Prominence HPLC system (Shimadzu Corporation, Japan) consisting of LC-20 AD pump, DGU-20 A5 degasser, CBM-20A interface, and SPD-20A UV–Vis detector with a 20 µL injection loop. The column utilized for studying the chromatographic behavior of the analytes was the most frequently used for lipophilicity investigations: Waters symmetry® C18 column [250 mm × 4.6 mm (i.d.), 5-μm particle size]. The flow rate was 1.2 mL/min at room temperature. The retention behaviour of the analytes was investigated as a function of mobile phase composition ranging from 60–80% methanol and 40–20% water. The HPLC analyses were carried out at room temperature under isocratic conditions. Membrane filters (0.45 μm) from Sartorius (Goettingen, Germany) were used for filtration of samples. The absorbance of the analytes during a chromatographic run was performed at 200 nm. Each experiment was run in duplicate. Chromatographic data were collected using LabSolutions CS software. H^1NMR spectra were recorded using Bruker NMR spectrometer (Bruker GmbH, Germany),
It was shown from previous reports that the chromatographic systems using methanol: water as mobile phases were better for log k modeling than those containing acetonitrile as an organic modifier. […] Chromatographic techniques including HPLC are based on the determination of the retention parameters. The indices of lipophilicity measured by HPLC are obtained from the logarithm of the retention factor (log k), which is calculated by the following equation:1 logk=logtr-t0/t0 where; tR is the retention time of the solute and t0 is the retention time of unretained species.
Estimating log kw directly is often very difficult, and is nearly non-feasible, because it can produce elongated retention time and also extreme peak broadening. […] Consequently, to obtain log kw, an extrapolation to 100% of pure water was carried out. Then, linear regression analysis was performed. Linear extrapolation is favored using definite ratios of organic modifier consistent with the lipophilicity level of the solutes.
Another substitute to the index of lipophilicity is the chromatographic index of hydrophobicity φ 0 which was first given by Valkò et al.. It is calculated simply by the equation: φ 0 = − log kw/S. φ0 denotes the volume fraction of the organic modifier in the mobile phase at which equal partitioning of the solute between the mobile and stationary phases is obtained, that is, k = 1, log k = 0 [22]. The value of φ 0 is specific for each compound; it relies solely on the pH, organic modifier and temperature.

[1] = 60% methanol in the mobile phase
[2] = 65% methanol in the mobile phase
[3] = 70% methanol in the mobile phase
[4] = 75% methanol in the mobile phase

Log k (logarithm of the retention factor) [1]	Log k (logarithm of the retention factor) [2]	Log kw (lipophilicity chromatographic index, intercept of log k = log kw − S φ)	φ 0 (isocratic chromatographic hydrophobicity index)	Log k (logarithm of the retention factor) [3]	Log k (logarithm of the retention factor) [4]	Log k (logarithm of the retention factor) (80% methanol in the mobile phase)	SMILES
0.130	0.053	1.941 and 1.94	64.39	–	–	–	O=S(=O)(C/C(=N/O)c1ccccc1)c1ccccc1 [Compound 16a]
0.481	0.280	2.715 and 2.72	72.57	0.150	–	–	Cc1ccc(/C(CS(=O)(=O)c2ccccc2)=N\O)cc1 [Compound 16b]
0.847	0.743	5.182 and 5.18	74.52	0.611	–	–	Cc1ccc(/C(CS(=O)(=O)c2ccccc2)=N\Nc2ccccc2)cc1 [Compound 17b]
0.635	0.501	3.151 and 3.15	75.14	0.123	–	–	O=C(CS(=O)(=O)c1ccccc1)c1ccc(Br)cc1 [Compound 11c]
–	0.901	4.784 and 4.78	77.99	0.364	0.123	–	Cc1ccc(S(=O)(=O)CC(=O)c2ccc(Br)cc2)cc1 [Compound 11d]
0.317	0.493	3.597 and 3.60	69.81	–	–	–	Cc1ccc(C(=O)CS(=O)(=O)c2ccccc2)cc1 [Compound 11b]
–	0.950	–	–	0.83	0.530	0.235	Cc1ccc(-c2cc(C(F)(F)F)nn2-c2ccc(S(N)(=O)=O)cc2)cc1 [Celecoxib, 4-[5-(4-methylphenyl)-3-(trifluoromethyl)pyrazol-1yl]benzenesulfonamide, reference compound]
0.950	0.824	4.59	77.97	0.740	–	–	O=S(=O)(C/C(=N/Nc1ccccc1)c1ccccc1)c1ccccc1 [Compound 17a]
0.088	0.041	–	64.83	–	–	–	O=C(CS(=O)(=O)c1ccccc1)c1ccccc1 [Compound 11a]
